Measured values taken from ChEMBL document CHEMBL1141087, “Differential response of estrogen receptor subtypes to 1,3-diarylindene and 2,3-diarylindene ligands” (J Med Chem, 2005).

Key:
[1] = target: T1, Estrogen receptor beta (Homo sapiens, UniProt Q92731)
[2] = target: T2, Estrogen receptor (Homo sapiens, UniProt P03372)
T2 sequence (P03372 whole entry): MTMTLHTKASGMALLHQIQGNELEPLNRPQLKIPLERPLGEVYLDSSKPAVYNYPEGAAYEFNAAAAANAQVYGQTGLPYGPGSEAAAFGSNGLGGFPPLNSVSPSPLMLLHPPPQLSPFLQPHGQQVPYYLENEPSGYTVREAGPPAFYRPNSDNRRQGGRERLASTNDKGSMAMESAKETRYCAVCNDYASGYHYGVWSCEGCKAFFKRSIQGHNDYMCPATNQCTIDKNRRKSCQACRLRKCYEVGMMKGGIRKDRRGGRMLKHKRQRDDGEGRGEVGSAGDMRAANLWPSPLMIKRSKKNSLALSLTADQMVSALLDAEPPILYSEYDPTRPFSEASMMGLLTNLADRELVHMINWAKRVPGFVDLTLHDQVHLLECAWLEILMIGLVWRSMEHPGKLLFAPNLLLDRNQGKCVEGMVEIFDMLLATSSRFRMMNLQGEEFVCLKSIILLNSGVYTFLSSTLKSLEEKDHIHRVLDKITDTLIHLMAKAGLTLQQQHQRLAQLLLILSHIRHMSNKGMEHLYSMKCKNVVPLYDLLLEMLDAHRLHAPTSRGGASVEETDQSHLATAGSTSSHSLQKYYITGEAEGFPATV

[3] = target: T2, Estrogen receptor; remark: listed apart in the source
Description: Transcriptional activation of estrogen receptor alpha in U2OS cell using estrogen-regulated luciferase reporter gene plasmid upon incubation for 20-30 mins at RT

[4] = target: T1, Estrogen receptor beta; remark: listed apart in the source
Description: Transcriptional activation of estrogen receptor beta in U2OS cell using estrogen-regulated luciferase reporter gene plasmid upon incubation for 20-30 mins at RT

T1 sequence (Q92731 whole entry): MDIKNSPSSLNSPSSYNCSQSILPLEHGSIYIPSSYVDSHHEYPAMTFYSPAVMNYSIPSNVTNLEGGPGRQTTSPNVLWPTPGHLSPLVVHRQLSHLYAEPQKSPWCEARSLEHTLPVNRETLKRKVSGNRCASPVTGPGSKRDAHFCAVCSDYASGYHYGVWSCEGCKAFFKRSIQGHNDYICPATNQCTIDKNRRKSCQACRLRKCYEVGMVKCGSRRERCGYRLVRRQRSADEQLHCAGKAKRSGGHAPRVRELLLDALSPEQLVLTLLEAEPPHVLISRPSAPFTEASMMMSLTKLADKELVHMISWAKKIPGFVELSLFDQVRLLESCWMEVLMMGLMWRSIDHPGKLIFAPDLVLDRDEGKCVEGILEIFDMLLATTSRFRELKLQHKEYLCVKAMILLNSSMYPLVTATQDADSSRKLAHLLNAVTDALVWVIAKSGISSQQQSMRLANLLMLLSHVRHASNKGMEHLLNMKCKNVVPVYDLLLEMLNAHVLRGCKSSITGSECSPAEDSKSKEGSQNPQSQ

Oc1ccc(C2=C(c3ccc(Cl)cc3)c3ccc(O)cc3C2)cc1
Ki [1]: 0.49 nM
Ki [2]: 24 nM
EC50 [3]: 17 nM

CC(=O)c1ccc(C2=C(c3ccc(O)cc3)Cc3cc(O)ccc32)cc1
Ki [1]: 3.8 nM
Ki [2]: 7.3 nM

Oc1ccc(C2=C(c3ccc(F)cc3)c3ccc(O)cc3C2)cc1
Ki [1]: 2.8 nM
EC50 [4]: 10 nM
EC50 [3]: 3.9 nM

CCC1=C(c2ccc(O)cc2)C(C(=O)Nc2ccc(OCCN3CCCCC3)cc2)c2cc(O)ccc21 (stereo not drawn)
Ki [1]: 147 nM
Ki [2]: 184 nM
EC50 [3]: 100 nM

Oc1ccc(C2=C(c3ccc(OCCN4CCCCC4)cc3)c3ccc(O)cc3C2)cc1
Ki [1]: 0.19 nM
Ki [2]: 1.7 nM

NC(=O)c1ccc(C2=C(c3ccc(O)cc3)Cc3cc(O)ccc32)cc1
Ki [1]: 0.46 nM
Ki [2]: 4.2 nM

Oc1ccc(C2=C(c3ccc(C(F)(F)F)cc3)c3ccc(O)cc3C2)cc1
Ki [1]: 0.91 nM
Ki [2]: 2.1 nM
EC50 [3]: 15 nM

CCC1=C(c2ccc(O)cc2)Cc2cc(O)ccc21
EC50 [4]: 0.3 nM
EC50 [3]: 0.31 nM

CCC1=C(c2ccc(O)cc2)C(C(=O)Nc2ccc(OCCN(C)C)cc2)c2cc(O)ccc21 (stereo not drawn)
EC50 [4]: 512 nM
EC50 [3]: 152 nM

CCC1=C(c2ccc(O)cc2)C(C(=O)O)c2cc(O)ccc21 (stereo not drawn)
EC50 [4]: 52 nM
EC50 [3]: 158 nM

CCC1=C(c2ccc(O)cc2)C(C(=O)Nc2ccc(O)cc2)c2cc(O)ccc21 (stereo not drawn)
EC50 [3]: 427 nM

Cc1ccc(C2=C(c3ccc(O)cc3)Cc3cc(O)ccc32)cc1
Ki [1]: 1.3 nM
EC50 [3]: 17 nM

O=C(O)c1ccc(C2=C(c3ccc(O)cc3)Cc3cc(O)ccc32)cc1
Ki [1]: 421 nM

CCC1=C(c2ccc(O)cc2)C(CC)c2cc(O)ccc21 (stereo not drawn)
EC50 [4]: 0.3 nM
EC50 [3]: 0.059 nM

Nc1ccc(C2=C(c3ccc(O)cc3)Cc3cc(O)ccc32)cc1
Ki [1]: 2.2 nM
Ki [2]: 0.67 nM
EC50 [3]: 6.7 nM

Oc1ccc(C2=C(c3ccccc3)c3ccc(O)cc3C2)cc1
EC50 [4]: 54 nM
EC50 [3]: 4.3 nM

Oc1ccc(C2=C(c3ccc(O)cc3)c3ccc(O)cc3C2)cc1
Ki [1]: 1.3 nM
Ki [2]: 8.5 nM
EC50 [3]: 7 nM

Oc1ccc(C2=C(c3ccc(CBr)cc3)c3ccc(O)cc3C2)cc1
Ki [1]: 15 nM
Ki [2]: 59 nM
EC50 [3]: 109 nM

Oc1ccc(C2=C(Cc3ccccc3)c3ccc(O)cc3C2)cc1
EC50 [4]: 37 nM
EC50 [3]: 14 nM
